For 69 compounds, EC50, IC50 and outcome results are on record in PubChem BioAssay AID179 (DTP/NCI, 2004).

As usually defined, the EC50 is the concentration that produces a half-maximal response. By IC50 is commonly meant the point on the concentration scale where inhibition reaches its midpoint. Higher therefore signals lower potency.

SMILES strings stand for the structures. Calls of active or inactive are those of the source.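 How the source made its calls: active means compounds giving half or more protection of infected cells from virus-caused growth loss, again on retest; inactive means the rest.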 Where a SMILES comes first, the peptide text is derived from it.

This experiment concerns CEM cells HIV-1 protection, formazan growth assay. Nature of the experiment: NCI AIDS Antiviral Assay. The conditions noted are these: for IC50: measured here: growth of uninfected CEM cells. In a few lines:
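Protection of CEM cells against HIV-1 measured as cell growth via soluble formazan read-out, with five concentrations tested on both infected and uninfected cells; failure to protect may reflect toxicity.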

For `CCCC(=O)OCC(COC(=O)CCC)OC(=O)CCC`, the EC50 was greater than 200 µM and the IC50 is greater than 200 µM.
For `CC1CC/C(=C\c2ccc(F)cc2)C(=O)/C1=C/c1ccc(F)cc1` (centres undefined), the EC50 was greater than 19.5 µM and the IC50 turned out to be 9.33 µM.
With `COc1cccc(CCn2c(N)c(-c3cc(Cl)cc(Cl)c3)c3ccc([N+](=O)[O-])cc3c2=O)c1`, the EC50 is greater than 200 µM and the IC50 was found to be 3.39 µM.
The like results for `COc1ccc2nc3c([N+](=O)[O-])ccc4c3c(c2c1)NCCN4CCN(C)C` were, in that order, greater than 200 µM and 1.05 µM.
Turning to `CC(C)NCC1CCc2cc(CO)c([N+](=O)[O-])cc2N1` (centres undefined), the EC50 was greater than 200 µM and the concentration for half-maximal inhibition (IC50) is greater than 200 µM.
As to `CCCCCC=C(c1cc(Br)c(OC)c(Br)c1)c1cc(Br)c(OC)c(Br)c1`, the EC50 was greater than 151 µM and the half-inhibitory concentration (IC50) was greater than 151 µM.
As for `O=[N+]([O-])C(=C(N1CCOCC1)N1CCOCC1)/C(Cl)=C(\Cl)Br`, the EC50 was greater than 200 µM and the IC50 came out at 9.77 µM.
For the compound `COc1cc(OC)c(C2(c3c(OC(C)C)c(=O)c3=O)SCCCS2)cc1OC`, the EC50 was greater than 200 µM and the half-inhibitory concentration (IC50) was found to be 170 µM.
The like results for `[Cu+2].[Cu+2].[NH-]c1c(N=Nc2ccc(/C=C/c3ccc(N=Nc4cc(S(=O)(=O)[O-])c5cccc(S(=O)(=O)[O-])c5c4[NH-])cc3S(=O)(=O)[O-])c(S(=O)(=O)[O-])c2)cc(S(=O)(=O)[O-])c2cccc(S(=O)(=O)[O-])c12.[Na+]` were, in that order, 10.5 µM and 24 µM.
The like results for `O=C1c2cccc3cc([N+](=O)[O-])cc(c23)C(=O)N1CCCN1CCN(CCCNc2ccc3ncn4c5ccccc5c(=O)c2c34)CC1` were, in that order, greater than 0.00501 µM and 0.0049 µM.
Turning to `COCc1cn(C2CCC(CO)O2)c(=O)[nH]c1=O` (centres undefined), the EC50 is greater than 490 µM and the IC50 was found to be 269 µM.
Turning to `CC1(Br)C(=O)NC(=O)N(C2CC(N=[N+]=[N-])C(CO)O2)C1N=[N+]=[N-]` (centres undefined), the outcome was active and the IC50 stood at 89.1 µM.
On to `CCC(C)C(NC(=O)C1CCCN1C(=O)C(Cc1ccc(O)cc1)NC(=O)C(CC(N)=O)NC(=O)C(CCC(N)=O)NC(=O)C(CO)NC(=O)C(N)C(C)C)C(=O)NC(CC(C)C)C(=O)NC(CCC(N)=O)C(N)=O` (centres undefined) (H-VSQNYPILQ-NH2; configuration not given here), for which the EC50 was greater than 58.9 µM and the half-maximal inhibitory concentration (IC50) is greater than 58.9 µM.
For the compound `CCN1CC2(C)CCC(OC)C34C5CC6CCC(O)(C5C(=O)O6)C(C(O)C23)C14` (centres undefined), the outcome was inactive.
Take `COc1cc(OC)c(OC)cc1/C=C\c1ccnc2ccccc12`: the EC50 is greater than 30.9 µM and the IC50 is 1.48 µM.
The like results for `CC(NC(=O)C(N)CC(=O)O)NC(=O)N1CCOCC1` (centres undefined) were, in that order, greater than 200 µM and greater than 200 µM.
For `Clc1ccc(C2N3CCCCC3[C@@H]3c4[nH]c5ccccc5c4CCN23)cc1` (some centres undefined), the EC50 is greater than 19.1 µM and the IC50 was greater than 19.1 µM.
Regarding `Oc1cc(N2CCCC2)ccc1/C=N/N1C(=S)N(c2ccccc2)C(=Nc2ccccc2)C1=Nc1ccccc1`, the EC50 is greater than 100 µM and the IC50 was greater than 100 µM.
On to `CC(C)(C)OC(=O)NCCc1cccc2c1oc1c(CCC(=O)O)cccc12`, for which the EC50 is greater than 309 µM and the IC50 amounted to 110 µM.
As to `CCC[CH2][Sn]1([CH2]CCC)[O]CC(CN2CCOCC2)[O]1` (centres undefined), the EC50 is greater than 4.57 µM and the concentration for half-maximal inhibition (IC50) was determined as 0.295 µM.
The like results for `CCOc1ccccc1NC(=O)CCC(=O)NN` were, in that order, greater than 145 µM and greater than 145 µM.
The like results for `C=C1CC(C)(COc2ccc3c(C)cc(=O)oc3c2)OC1=O` (centres undefined) were, in that order, greater than 20 µM and 0.501 µM.
The like results for `COc1ccc(C(=O)C2=NON3OC23C(=O)c2ccc(OC)cc2)cc1` (centres undefined) were, in that order, greater than 38 µM and 6.76 µM.
Turning to `CCOC(=O)C(Cc1ccccc1[N+](=O)[O-])C(=O)OCC`, the EC50 is greater than 200 µM and the IC50 worked out at 102 µM.
The matching figures for `C=C(Br)CNC(=O)CCC(=O)NCC(=C)Br`: greater than 200 µM and greater than 200 µM.
The like results for `CC1SC(=S)N(c2ccc(Cl)cc2)C1=O` (centres undefined) were, in that order, greater than 138 µM and 67.6 µM.
The matching figures for `COc1cc2cc3c(c(-c4ccc5c(c4)OCO5)c2c(OC)c1OC)COC3=O`: greater than 34.7 µM and 17.8 µM.
For the compound `CC1=C(C/C=C/c2ccccc2)C(=O)c2ccccc2C1=O`, the result was inactive.
`CC(C)=CCC/C(C)=C/COC(C)(C)C1=CCC(C)CC1` (centres undefined) (tested in a mixture with another compound): the EC50 was greater than 200 µM and the IC50 is greater than 200 µM.
`c1ccc(P(CC[As](c2ccccc2)c2ccccc2)CC[As](c2ccccc2)c2ccccc2)cc1`: the EC50 is greater than 20.9 µM and the 50% inhibitory concentration (IC50) was determined as 2.14 µM.
In the case of `CCOC(=O)/C=C(/OCC)[C@@H]1C(C(=O)c2ccc(Cl)cc2)[C@@H]1/C(=C\C(=O)OCC)OCC` (some centres undefined), the EC50 was greater than 200 µM and the concentration for half-maximal inhibition (IC50) turned out to be 5.89 µM.
For `CC(C)CC(C#CCCOC(=O)c1ccccc1)OC(=O)c1ccccc1` (centres undefined), the EC50 is greater than 200 µM and the IC50 amounted to 95.5 µM.
Consider `COc1cc(CS(=O)c2ccc(O)cc2)cc(OC)c1OC` (centres undefined), for which the EC50 was greater than 200 µM and the half-maximal inhibitory concentration (IC50) was greater than 200 µM.
With `CCCCCCCCCCCCCCC1OC(=O)c2ccccc21` (centres undefined), the outcome was inactive.
On to `N=c1sc(N2CCOCC2)nn1CC(=O)c1ccccc1`, for which the EC50 was greater than 200 µM and the IC50 came to 129 µM.
The like results for `Cc1c(/C=N/NC(=O)c2ccccc2)c(=O)n(-c2ccccc2)n1C` were, in that order, greater than 200 µM and greater than 200 µM.
The matching figures for `Cn1c2ccccc2c2nnc(N/N=C/c3cccnc3)nc21`: greater than 200 µM and greater than 200 µM.
The like results for `Cc1cccc2c1C(=O)C(C1OC(=O)c3ccccc31)C2` (centres undefined) were, in that order, greater than 100 µM and greater than 100 µM.
In the case of `Nc1cc(N)[nH]c(=S)n1`, the outcome was inactive.
For `CC1=NC(=O)CNN1C1=NNC2(C(=O)N1)c1ccccc1-c1ccccc12`, the EC50 was greater than 100 µM and the IC50 was greater than 100 µM.
As for `COCCCNC(=O)C1=C(C)NC(C)=C(C(=O)NCCCOC)C1`, the EC50 is greater than 200 µM and the half-maximal inhibitory concentration (IC50) was determined as 53.7 µM.
The like results for `O=[N+]([O-])c1ccccc1S(=O)c1ccccc1[N+](=O)[O-]` were, in that order, greater than 204 µM and 3.47 µM.
The matching figures for `COc1ccc(-c2c(C#N)c(-c3ccccc3)n(NS(=O)(=O)c3ccccc3)c(=O)c2C#N)cc1`: greater than 200 µM and 44.7 µM.
The like results for `Cc1ccc(C)c(C(=O)c2ccccc2)c1C(=O)O` were, in that order, greater than 200 µM and greater than 200 µM.
Turning to `Cc1ccnc(NC(NC(=O)c2ccccc2)(C(F)(F)F)C(F)(F)F)c1`, the result was inactive.
Regarding `Cc1cc(C)c(C(=O)O)c(N)c1O`, the outcome was inactive.
Turning to `O=C1CC2(CCC(O)(c3ccc4ccccc4c3)C(C(=O)c3ccc4ccccc4c3)C2)C(=O)c2ccccc2N1` (centres undefined), the EC50 is greater than 200 µM and the concentration for half-maximal inhibition (IC50) is 83.2 µM.
With `O=C1C(=O)N(c2cc(Cl)ccc2Cl)C(=O)C(=O)C1c1nc2ccccc2o1`, the EC50 is greater than 24.5 µM and the IC50 was greater than 24.5 µM.
With `C=C1C(=O)O[C@@H]2C[C@@H](C)[C@@H]3C=CC(=O)[C@@]3(C)[C@@H](OC(=O)CCCC(=O)O[C@H]3[C@@H]4C(=C)C(=O)O[C@@H]4C[C@@H](C)[C@@H]4C=CC(=O)[C@]43C)[C@H]12`, the EC50 was greater than 5.75 µM and the half-inhibitory concentration (IC50) amounted to 0.407 µM.
The matching figures for `O=c1[nH]c2ccc([N+](=O)[O-])cc2nc1/C(=N/Nc1ccccc1)C(O)c1ccco1` (centres undefined): greater than 437 µM and 275 µM.
As to `CNc1nc(OC)c2c(n1)[n+](C)cn2C`, the EC50 was greater than 200 µM and the IC50 was determined as 61.7 µM.
The like results for `CCSCCCCCCCCCCCC(=O)OCC1OC(n2cc(C)c(=O)[nH]c2=O)CC1F` (centres undefined) were, in that order, 0.0158 µM and 2 µM.
The like results for `NC(Cc1ccccc1CP(=O)(O)O)C(=O)O` (centres undefined) were, in that order, greater than 200 µM and greater than 200 µM.
Turning to `CCOC(=O)c1cnc2cc3cccccc3n2c1=O`, the result was inactive.
For `O=C(c1ccc(Cl)cc1)C1OC12C(=O)Nc1c(Cl)cc(Cl)cc12` (centres undefined), the EC50 was greater than 19.5 µM and the 50% inhibitory concentration (IC50) is greater than 19.5 µM.
With `COc1cc(C)cc2ccc(Br)c(O)c12`, the EC50 was greater than 200 µM and the 50% inhibitory concentration (IC50) is greater than 200 µM.
Turning to `CC1(C)CNCC2(C)OCCCOC3(C)CNCC(C)(C)NC(=O)C(C)(CNCC(C)(C)NC3=O)OCCCOC(C)(CNCC(C)(C)NC2=O)C(=O)N1`, the EC50 was greater than 200 µM and the IC50 is greater than 200 µM.
For `CN1C(=O)c2cccc3c([N+](=O)[O-])ccc(c23)C1=O`, the EC50 was greater than 20.4 µM and the half-maximal inhibitory concentration (IC50) was 7.76 µM.
`Cc1nc(N(C(C)C)C(C)C)c(C(C)C)o1`: the EC50 is greater than 200 µM and the IC50 is greater than 200 µM.
Take `CC(=O)/C(=C\c1ccco1)C(=O)Nc1ccccc1`: the EC50 was greater than 74.1 µM and the concentration for half-maximal inhibition (IC50) is greater than 74.1 µM.
With `CN(C)c1ncnc2c1ncn2C1OC(CO)CC1F` (centres undefined), the concentration giving a half-maximal response (EC50) was 141 µM and the IC50 is 178 µM.
For the compound `CN(C)c1nncc2[nH]cnc12`, the EC50 is greater than 200 µM and the IC50 was greater than 200 µM.
For `C1=NC(N(Cc2ccccc2)Cc2ccccc2)N(Cc2ccccc2)N1` (centres undefined), the EC50 was greater than 52.5 µM and the IC50 was 32.4 µM.
Take `CC(O)C[P+](c1ccccc1)(c1ccccc1)c1ccccc1` (centres undefined): the EC50 was greater than 200 µM and the half-maximal inhibitory concentration (IC50) was 15.8 µM.
The like results for `Clc1cc(OC23CC4CC(CC(C4)C2)C3)nc(Cl)n1` were, in that order, greater than 100 µM and 45.7 µM.
Take `COc1ccc(NC(=O)CC(=O)NNC(Sc2ccccc2)c2cc(N=Nc3ccc(Br)cc3)ccc2O)cc1` (centres undefined): the outcome was inactive.
Turning to `O=C(Nc1ccc(Cl)c(Cl)c1)NC(CO)(CO)CO`, the EC50 is greater than 200 µM and the 50% inhibitory concentration (IC50) came out at 110 µM.
The like results for `Cc1c(N=Nc2ccc(Br)cc2)c(=O)n(-c2ccccc2)c(=O)n1-c1nc2ccccc2[nH]1` were, in that order, greater than 89.1 µM and 85.1 µM.
Regarding `N#CN=C(N)N`, the result was inactive.
